From US9526757B2, “Peptides that inhibit the interaction between ASF1 and histones, and use thereof” (COMMISSARIAT A L'ENERGIE ATOMIQUE ET AUX ENERGIES …, priority 2011, dated 2016)
“Also recorded” adds a separate entry of the source. Where two headings read alike, the source gives them in different places. Where no end group is shown, it is not given here.

Assays:
Asf1 1-156 = molecular target: T1, Asf1 1-156 (Homo sapiens, UniProt Q9Y294); assay: Calorimetry (ITC) of the interaction of peptides with Asf1 1-156; assay type: binding; conditions: for binding to Asf1 (in words): control peptide mutated on three key residues; for affinity for Asf1 compared with peptide i5: optimized sequences of i5
T1 construct: made in house
Experimental: FIG. 1: ITC curves of the interaction Asf1 1-156 (30 μM in A, 10 μM in B and C) with peptide i1 (A), i4 (B) and i5 (C). The peptide concentration used for this experiment is 0.5 mM for i1, and 0.16 mM for i4 and i5.
Human Asf1a and b proteins and the conserved N-terminal domain (1-156) of each of the isoforms were cloned into the vector peTM30. The unlabeled and ^15N and ^13C/^15N labeled recombinant proteins were purified according to the protocol of Mousson et al. (2004, Journal of Biomolecular NMR, 29(3): 413-414). The peptides were either produced by chemical synthesis ([…]), or cloned after gene synthesis ([…]) in the vector Gateway pDest 17 (Invitrogen), then purified according to the protocol of Mousson et al. (2005, Proc. Natl. Sci. USA, 102(17): p. 5975-5980).
All calorimetry experiments were carried out in 50 mM Tris buffer pH 7.4 at 5° C., unless otherwise indicated. Peptides were introduced in the syringe at a concentration of […] and Asf1 was added to the cuvette at a concentration of 30 μM or 10 μM. Calorimetry tests were also conducted at 25° C. or in 50 mM Tris buffer, 150 mM NaCl, pH 7.4 to obtain more detailed information on the characteristics of the interactions studied.

U2OS cells [1] = assay: Cell penetration test of FITC-labelled peptides by flow cytometry; assay type: cell-based, human; conditions: FITC label, 1 μM, 1 hour, FIG. 5
Experimental: The capacity of the peptide i42V (SEQ ID NO: 47) coupled either to the sequence TAT (peptide TAT-i42V, SEQ ID NO: 58) or to the sequence (RRP)5 (peptide RRP5-i42V, SEQ ID NO 59) was measured using these peptides coupled to an FITC label. The mean fluorescence of the cells was analyzed by flow cytometry (FIG. 5).
U2OS cells were incubated with culture medium supplemented with fluorescent peptide at a final concentration of 1 μM for 1 hour, then washed with PBS buffer and detached by addition of trypsin, washed with PBS buffer, then analyzed by flow cytometry (FACS).

U2OS cells [2] = assay: Toxicity test on U2OS cells transduced with peptides in the presence of pyrene butyrate; assay type: cell-based, human; conditions: 24 hours after transduction
Experimental: To optimize the internalization of the peptide, the transduction was performed in the presence of pyrene butyrate, according to the method proposed by Takeuchi et al. (ACS CHEMICAL BIOLOGY, 2006. 1(5): p. 299-303). […] RRP5-i1 is the peptide of SEQ ID NO: 60. RRP5-i5 is the peptide of SEQ ID NO: 66. This correlation between the affinity of the peptide for Asf1 and the induced cell toxicity was confirmed for another cell type (HeLa cells) and by using another protocol to measure cell survival, the MTT assay (FIG. 10).
To test the phenotypes induced by the peptide, a newly developed protocol for the “Cell Penetrating TAT” was used. The peptides were dissolved in PBS buffer containing […] and incubated with U2OS (or HeLa) cells for 4 minutes. Cells were then washed three times with PBS buffer, then taken up in culture medium containing fetal calf serum. Cell death was analyzed by FACS 24 to 48 hours later by propidium iodide incorporation or by an MTT assay (3-(4,5-dimethylthiazol-2-yl)-2,5-diphenyl tetrazolium bromide). (Mosmann, T. J. Immunol. Methods 65: 55-63, 1983).

Asf1-H3-H4 interaction = molecular target: T2, Asf1-H3-H4 interaction (Homo sapiens, UniProt Q9Y294); assay: Competition assay on GST column (peptide/histone competition in vitro, Western blot); assay type: binding; conditions: peptide 0.1 mM and 1 mM, FIG. 3
T2 construct: The human protein GST-Asf1 1-156 was produced; made in house
Experimental: To do this, GST beads linked to Asf1 were incubated with an excess of histones H3-H4, then washed and incubated with increasing concentrations of peptide. The eluted histones were analyzed by Western blot.
The human protein GST-Asf1 1-156 was produced and then incubated with GST beads (glutathione S transferase, Sigma). For each experiment, 40 μg of recombinant Asf1 fixed to agarose beads were incubated with 400 μg of histones. After washing with 50 mM Tris buffer, pH 8, 150 mM NaCl, 1 mM EDTA, 1 mM DTT, 0.5% NP40, the beads were incubated with different concentrations of peptide (0 to 1 mM) dissolved in the same buffer.

[3] = ITC, 50 mM Tris buffer pH 7.4 at 5° C., Asf1 1-156, read-out: Kd

T1 sequence (Q9Y294 1-156): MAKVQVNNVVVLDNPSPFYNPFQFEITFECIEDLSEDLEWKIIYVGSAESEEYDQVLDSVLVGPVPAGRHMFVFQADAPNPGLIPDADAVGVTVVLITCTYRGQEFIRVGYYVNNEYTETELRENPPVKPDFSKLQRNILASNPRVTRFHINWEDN
T2 sequence (Q9Y294 1-156): as above

“GAMGTITPKEAQLARRIRGAGGVTLNGFG [SEQ ID NO: 47]” showed a Kd (Asf1 1-156; [3]) of 350 nM.
“GRKKRRQRRRGAMGTITPKEAQLARRIRGAGGVTLNGFG [SEQ ID NO: 58]” was tested, and the “penetration into cells (mean fluorescence)” value (U2OS cells [1]) was “penetrate more effectively than the penetration sequences alone”.
Substance “GAMGTITPKEEQLRRRIEGAGASVTLNGFG [SEQ ID NO: 46]” has a Kd (Asf1 1-156; [3]) of 420 nM.
“RRP5-i5mut: mutated version of RRP5-i5 carrying the (RRP)5 sequence, does not bind to Asf1; negative control (RRPRRPRRPRRPRRPASTERKWAEAARRARGAGGVTLNGAGGCA)” was tested, and the “binding to Asf1 (in words)” value (Asf1 1-156) was “does not bind to Asf1” and the “toxicity (in words)” value (U2OS cells [2]) was “no toxicity was seen”.
GAMGTIMPKDIQLARRIRG [SEQ ID NO: 70] gave a Kd (Asf1 1-156; unit inferred, read-out: affinity for Asf1) of 8000 nM.
With “RRPRRPRRPRRPRRPGAMGTITPKEAQLARRIRGAGGVTLNGFGCA [SEQ ID NO: 50]” the Kd (Asf1 1-156; [3]) was 420 nM.
Substance “GAMGLTAAEHAKRSTLTPKEAQLARRIRGAGGVTLNGFG [SEQ ID NO: 52]” has a Kd (Asf1 1-156; [3]) of 30 nM.
“GAMGTLTPKEAELARRIRGAGASRTLNGFG [SEQ ID NO: 43]” gave a Kd (Asf1 1-156; [3]) of 350 nM.
“GAMGRVPPAVRKLGNASTERKWAELARRIRGAGGVTLNGFG [SEQ ID NO: 65]” gave a Kd (Asf1 1-156; [3]) of 60 nM.
“GAMGTRTPKERRLARRIRGAGGRTLNGFG [SEQ ID NO: 56]” was tested, and the Kd (Asf1 1-156; [3]) was 30 nM.
Work on “GAMGTLTPKEAELARRIRGAGGVTLNGFG [SEQ ID NO: 48]” yielded a Kd (Asf1 1-156; [3]) of 60 nM.
“ASTERKWAELARRIAGAGGVTLNGFG [SEQ ID NO: 79]” was tested, and the “affinity for Asf1 compared with peptide i5” value (Asf1 1-156) was “at least as good as that of peptide i5”.
For “ASTERKWAELARRIRGAGGRTLNGFG [SEQ ID NO: 77]”, the “affinity for Asf1 compared with peptide i5” value (Asf1 1-156) was “at least as good as that of peptide i5”.
“GAMGTLTPKEAELARRIRGAGGRTLNGFG [SEQ ID NO: 42]” showed a Kd (Asf1 1-156; [3]) of 180 nM.
In the case of “RRPRRPRRPRRPRRPGAMGTITPKEAQLARRIRGAGGVTLNGFG [SEQ ID NO: 59]”, the “penetration into cells (mean fluorescence)” value (U2OS cells [1]) is reported as “penetrate more effectively than the penetration sequences alone”.
“i5mut: control peptide, 90% identity with peptide i5, mutated to alanine on three key residues, no longer binds to Asf1 (ASTERKWAEAARRARGAGGVTLNGAG) [reference compound]” was tested, and the “binding to Asf1 (in words)” value (Asf1 1-156) was “no longer binds to Asf1; also recorded: does not bind to Asf1” and the “histones bound to or detached from GST-Asf1 beads” value (Asf1-H3-H4 interaction) was “the histones remain bound to Asf1”.
For “GAMGTIMPKDIQLARRIRGAGASRTLYGFG [SEQ ID NO: 39]”, the Kd (Asf1 1-156; [3]) was 350 nM.
